In US8642656B2, “Calixarene-based peptide conformation mimetics, methods of use, and methods of making” (priority 2004, dated 2014):
Like-named read-outs stand apart in the source and are kept apart here.

Legend:
[1] = system: LPS from K. pneumoniae; test: LPS neutralization assay (Limulus amoebocyte lysate, QCL-1000); assay type: biochemical, Klebsiella pneumoniae; details: read-out: IC50 values (μM) for LPS binding, Klebsiella
Source text: (§1) The ability of compounds to neutralize endotoxin was detected in vitro by using the chromogenic QCL-1000 kit from BioWhittaker, Inc. (Walkersville, Md.), and as described in their protocol. This Limulus amoebocyte lysate (LAL) assay is quantitative for Gram negative bacterial endotoxin (lipopolysaccharide, LPS). In this assay compounds that are active inhibit the LPS-mediated activation of a proenzyme whose active form would release p-nitroaniline (pNA) from a colorless synthetic substrate producing a yellow color (pNA) whose absorption is monitored spectrophotometrically at 405-410 nm. The initial rate of enzyme activation is proportional to the concentration of endotoxin present.
(§2) Variants of LPS from six Gram negative bacteria were used: E. coli serotypes 0111:B4 (Combrex, Walkersville, Md.) and 055:B5 (Sigma, St. Louis, Mo.); Klebsiella pneumoniae (List Biologies, San Jose, Calif.); Pseudomonas aeruginosa (List Biologies, San Jose, Calif.); Salmonella typhimurium (List Biologies, San Jose, Calif.), and Serratia marcascens (List Biologies, San Jose, Calif.). The concentration of compound required to neutralize a given LPS and therefore to inhibit the Limulus amoebocyte lysate driven by 0.04 units of any given LPS was determined by dose response curves fit by using a standard sigmoidal function to determined the JC50 value for each lopomimetic compound. The 0.04 units corresponds to 0.01 ng LPS from E. coli serotype 055:B5, 0.01 ng LPS from E. coli serotype 0111:B4, 0.003 ng LPS from K. pneumoniae, 0.01 ng LPS from P. aeruginosa, 0.03 ng LPS from S. typhimurium, and 0.03 ng LPS from S. marcascens.

[2] = system: LPS from P. aeruginosa; test: as above; assay type: biochemical, Pseudomonas aeruginosa; details: read-out: IC50 values (μM) for LPS binding, P.a.
Source text: as §1, §2

[3] = system: LPS from S. typhimurium; test: as above; assay type: biochemical, Salmonella typhimurium; details: read-out: IC50 values (μM) for LPS binding, Salmonella
Source text: as §1, §2

[4] = system: LPS from S. marcascens; test: as above; assay type: biochemical, Serratia marcascens; details: read-out: IC50 values (μM) for LPS binding, Serratia
Source text: as §1, §2

[5] = system: LPS from E. coli serotype 055:B5; test: as above; assay type: biochemical
Source text: as §1, §2

[6] = system: LPS from E. coli serotype 0111:B4; test: as above; assay type: biochemical; details: read-out: IC50 values (μM) for LPS binding, E. coli 0111:B4
Source text: as §1, §2

[7] = system: E. coli J96; test: Bactericidal assay on J96; assay type: cell-based; details: in the micromolar range (Table 1)
Source text: Pseudomonas aeruginosa type 1 is a clinical, smooth strain isolate stereotyped by using the scheme of Homma et al., Japan. J. Exp. Med. 46, 329-336 (1976) and maintained in the lab by monthly transfer on blood agar plates. E. coli J96, IA2, and H5 are smooth strain, uropathogenic clinical isolates kindly maintained and provided by J. R. Johnson and described in Johnson et al., J. Infect. Disease 173, 920-926 (1996) for J96 and IA2 and in Johnson et al., J. Infect. Disease 173, 746-749 (1996) for H5. J5 is an E. coli rough strain initially referenced by G. R. Siber and discussed in Warren et al., Infect. Immunity 55, 1668-1673 (1987) and is analogous to the smooth strain E. coli 0111:B4 used in the BioWhittaker LAL endotoxin detection and quantitation kit described below. Gram-positive MN8 and MNHO are two patient isolates of Staphylococcus aureus, which were kindly provided by P. M. Schlievert and described in Bohach et al., Rev. Infect. Diseases 11, 75-82 (1989) for MNHO and in Schlievert et al., J. Infect. Diseases 147, 236-242 (1983) for MN8. All cultures are maintained on nutrient agar plates.
Pyrogen-free solutions were used throughout the assay. Log phase bacteria were obtained by transferring an overnight culture or scraping crystals off-85° C glycerol stocks of overnight cultures. Bacteria were washed and resuspended in 0.9% sodium chloride with adjustment to an optical density at 650 nm which yields 3×10^8 CFU/ml. Bacteria were then diluted 1:10 in 0.08 M citrate phosphate buffer, pH 7.0 (prepared by mixing 0.08 M citric acid with 0.08 M dibasic sodium phosphate). Bacteria (0.15 ml) were incubated with the test compound in a final volume of 1.0 ml of buffer. The assay was done in 17×100 polypropylene tubes in a reciprocal water bath shaker at 37° C for 30 minutes. Following this 30 minute (min) incubation. 10-fold dilutions were made in 0.9% sodium chloride. Dilutions were done to 10^−4 and 20 μl of each dilution was streaked across an agar plate. Gram-positive organisms were plated on nutrient agar plates containing 2% agar and Gram-negative organisms were plated on MacConkey agar (2%). Plates were incubated overnight at 37° C and counted the next morning. The dilution containing 10-100 bacteria was counted and the number multiplied by 50 to adjust all counts to the number bacteria killed per milliliter. Compound concentrations were converted to logarithm base ten and graphed. Bactericidal activity was determined by dose response where LD50 values were determined by best fits of a sigmoidal curve to the dose response data.

[8] = Table 3, errors estimated ±30%, read-out: IC50 values (μM) for LPS binding, E. coli 055:B5
[9] = Table 2, read-out: IC50 values (μM) for LPS binding, E. coli 055:B4

Molecule	IC50 ([1]; Table 3, errors estimated ±30%) [µM]	IC50 ([2]; Table 3, errors estimated ±30%) [µM]	IC50 ([3]; Table 3, errors estimated ±30%) [µM]	IC50 ([4]; Table 3, errors estimated ±30%) [µM]	IC50 [5, 8] [µM]	IC50 ([6]; Table 3, errors estimated ±30%) [µM]	IC50 ([1]; Table 2) [µM]	IC50 ([2]; Table 2) [µM]	IC50 ([3]; Table 2) [µM]	IC50 ([4]; Table 2) [µM]	IC50 [5, 9] [µM]	IC50 ([6]; Table 2) [µM]	bactericidal activity (in words) [7]
5,17-Di-(2-methallyl)-11,23-diallyl-25,26,27,28-tetrakis-N—(N,N-dimethyl-2-aminoethyl) carbamoylmethoxy calix[4]arene [Compound 41]	> 5	> 5	> 5	> 5	3.6	4.7	–	–	–	–	–	–	–
5,17-Di-(hydroxycabonyl)ethyl-25,27-di-(3-methylbutoxy)-26,28-dihydroxycalix[4]arene [Compound 47]	> 5	> 5	> 5	> 5	> 5	> 5	> 5	> 5	> 5	> 5	> 5	> 5	–
25,27-Bis[N—(N,N-dimethyl-2-aminoethyl)carbamoylmethoxy]-26,28-dihydroxy calix[4]arene [Compound 38]	> 5	> 5	> 5	> 5	> 5	> 5	–	–	–	–	–	–	–
25,27-Bis[N-(2-aminoethyl)carbamoylmethoxy]-26,28-dihydroxy calix[4]arene [Compound 39]	> 5	> 5	> 5	> 5	> 5	> 5	0.3	0.8	0.6	1.5	0.9	1.6	–
CC(C)CCOc1c2cccc1Cc1cc(CCCOS(=O)(=O)O)cc(c1O)Cc1cccc(c1OCCC(C)C)Cc1cc(CCCOS(=O)(=O)O)cc(c1O)C2 [Compound 49]	2.1	> 5	> 5	4.2	5	5	2.1	> 5	> 5	4.2	5	5	–
25,27-Bis(2-guanidinoethoxy)-26,28-dihydroxy calix[4]arene trifluoroacetic acid salt [Compound 36]	> 5	> 5	> 5	> 5	4.1	3.9	–	–	–	–	–	–	–
polymyxin B [PmxB, reference compound]	0.01	0.003	0.3	> 5	0.03	0.03	0.01	0.003	0.1	> 5	0.03	0.03	–
NCCNC(=O)COc1c2cccc1Cc1cccc(c1O)Cc1cccc(c1OCC(=O)NCCN)Cc1cccc(c1O)C2 [Compound 20]	–	–	–	–	–	–	> 5	> 5	1.2	> 5	> 5	> 5	–
CN(C)CCNC(=O)COc1c2cc(C(C)(C)C)cc1Cc1cc(C(C)(C)C)cc(c1OCC(=O)NCCN(C)C)Cc1cc(C(C)(C)C)cc(c1OCC(=O)NCCN(C)C)Cc1cc(C(C)(C)C)cc(c1OCC(=O)NCCN(C)C)C2 [Compound 3]	> 5	> 5	> 5	> 5	> 5	> 5	0.08	> 5	4.1	> 5	4.4	> 5	reasonably good bactericidal activity
CC(C)CCOc1c2cccc1Cc1cc(CCCP(=O)(O)O)cc(c1O)Cc1cccc(c1OCCC(C)C)Cc1cc(CCCP(=O)(O)O)cc(c1O)C2 [Compound 48]	> 5	> 5	> 5	> 5	> 5	> 5	> 5	> 5	> 5	> 5	> 5	> 5	–
CC(C)(C)c1cc2c(OCC(=O)NCCN)c(c1)Cc1cc(C(C)(C)C)cc(c1OCC(=O)NCCN)Cc1cc(C(C)(C)C)cc(c1OCC(=O)NCCN)Cc1cc(C(C)(C)C)cc(c1OCC(=O)NCCN)C2 [Compound 4]	0.3	0.8	0.6	1.5	0.9	1.6	0.4	> 5	0.8	> 5	0.05	2.7	–
5,17-Di-(2-methylpropyl)-11,23-dipropyl-25,26,27,28-tetrakis-N—(N,N-dimethyl-2-aminoethyl)carbamoylmethoxy calix[4]arene [Compound 17]	2.1	> 5	3.1	> 5	3.8	3.7	–	–	–	–	–	–	–
CCCc1cc2c(OCC(=O)NCCN(C)C)c(c1)Cc1cc(CCC)cc(c1OCC(=O)NCCN(C)C)Cc1cc(CCC)cc(c1OCC(=O)NCCN(C)C)Cc1cc(CCC)cc(c1OCC(=O)NCCN(C)C)C2 [Compound 11b]	0.4	> 5	0.8	> 5	0.05	2.7	–	–	–	–	–	–	–
5,11,17,23-Tetra-tert-butyl-25-(2-aminoethoxy)-27-(2-guanidinoethoxy)-26,28-dihydroxy Calix[4]arene trifluoroacetic acid salt [Compound 28]	> 5	> 5	2.6	> 5	4.1	> 5	–	–	–	–	–	–	–
